Assay results reported in patent US8709976B2, “Anthranilic diamide compositions for propagle coating” (E I du Pont de Nemours and Company, priority 2010, dated 2014).

Experiment: Corn greenhouse trial: uptake of Compound 2 into leaves from coated seeds
Conditions: corn (maize), in vivo
Protocol: Plant leaves were macerated using a Geno/Grinder 2000 bead beater homogenizer (SPEX CertiPrep, Metuchen, N.J., USA), and then acetonitrile (˜5 mL/g of leaf tissue) was added. The mixture was further shaken for 1 minute using the Geno/Grinder homogenizer, and then centrifuged. The acetonitrile extract supernatant was analyzed by high performance liquid chromatography with tandem mass spectrometry detection (HPLC/MS/MS) using a Waters (Milford, Mass. USA) Alliance HT2795 chromatograph and Zorbax SB C18 (2.1×50 mm, 5 microns) column eluted with mixtures of water and acetonitrile containing 0.1% (volume/volume) of formic acid, with detection by a Waters Quattro Micro API Mass Spectrometer using electrospray ionization (ESI+). Standard solutions of Compound 1 and Compound 2 were prepared by adding measured amounts of stock solutions of Compound 1 or Compound 2 in acetonitrile or tetrahydrofuran to acetonitrile extracts of leaves from plants grown from untreated seeds.
For corn and Compound 2, a 1:1 weight ratio of nonionic fatty alcohol ethoxylate with Compound 2 was prepared with each additive by mixing the appropriate amount of either 16.7 wt % or 20.0 wt % solution in water of the nonionic fatty alcohol ethoxylate with 1.0 g of Compound 2.
Into a FlackTek™ Max 100 disposable plastic cup were placed 35.0 grams (100 seeds) of corn seeds. […]

CNC(=O)c1cc(Cl)cc(C)c1NC(=O)c1cc(Br)nn1-c1ncccc1Cl [Compound 2, 3-bromo-N-[4-chloro-2-methyl-6-[(methylamino)carbonyl]phenyl]-1-(3-chloro-2-pyridinyl)-1H-pyrazole-5-carboxamide]
Uptake microgram/g of leaf: 0.42 microgram/g of leaf
